What was measured:
[1] = Russ, et al. 1999; cited from earlier work
[2] = Nutt and Fellman 1984; cited from earlier work
[3] = biological target: T1, catechol-O-methyltransferase (COMT) (Homo sapiens, UniProt P21964); experiment: COMT inhibition assay (HTRF, production of SAH from SAM); format: biochemical; conditions: table does not say MB-COMT or S-COMT
T1 construct: M51A variant) was expressed in HEK 293F cells
T1 sequence (P21964 52-271 limits assumed): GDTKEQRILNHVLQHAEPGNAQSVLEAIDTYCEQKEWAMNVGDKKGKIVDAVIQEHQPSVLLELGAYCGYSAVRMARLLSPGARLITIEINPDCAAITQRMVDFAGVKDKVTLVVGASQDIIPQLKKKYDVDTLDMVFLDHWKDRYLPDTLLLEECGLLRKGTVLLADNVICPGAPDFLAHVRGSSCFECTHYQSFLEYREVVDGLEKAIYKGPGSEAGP
Method in brief: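 Membranes from HEK293F cells expressing MB-COMT (M51A variant) incubated with 20 μM SAM and 1.5 μM dopamine plus compound (10 concentrations) for 40 min at 37 °C; S-COMT (Val158) at 0.15 ng/well used 100 μM dopamine, 15 min. SAH measured by HTRF against a standard curve; pIC50 from 4-parameter logistic fit.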

[4] = biological target: T2, aromatic amino acid decarboxylase (AAAD) (Homo sapiens, UniProt P20711); conditions: given with L-DOPA; Nutt, Woodward et al. 1985; cited from earlier work
T2 sequence (P20711 1-480): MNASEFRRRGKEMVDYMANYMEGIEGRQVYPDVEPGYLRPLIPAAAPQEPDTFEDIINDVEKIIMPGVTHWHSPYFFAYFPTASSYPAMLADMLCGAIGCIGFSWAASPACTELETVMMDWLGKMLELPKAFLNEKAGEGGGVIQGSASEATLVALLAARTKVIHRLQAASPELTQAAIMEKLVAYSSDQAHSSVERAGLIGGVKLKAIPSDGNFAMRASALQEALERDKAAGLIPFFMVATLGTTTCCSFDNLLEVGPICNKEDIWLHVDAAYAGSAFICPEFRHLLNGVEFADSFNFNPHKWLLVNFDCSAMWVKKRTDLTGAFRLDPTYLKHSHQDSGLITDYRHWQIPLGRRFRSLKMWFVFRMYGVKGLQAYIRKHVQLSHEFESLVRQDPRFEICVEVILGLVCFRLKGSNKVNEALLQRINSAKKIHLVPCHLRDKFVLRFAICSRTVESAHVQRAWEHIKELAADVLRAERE

Structure (SMILES) | Activity range (pIC50) [3] | also measured
CCN(CC)C(=O)/C(C#N)=C/c1cc(O)c(O)c([N+](=O)[O-])c1 [entacapone] |  | brain penetration [1]: negligible
N[C@@H](Cc1ccc(O)c(O)c1)C(=O)O [L-DOPA, L-dihydroxyphenylalanine] |  | percentage of exogenously administered L-DOPA that reaches the brain [2]: ~1%
O=c1cc2n(cc1O)CCN(Cc1c(Cl)cccc1Cl)C2c1ccccc1 (stereo not drawn) [Example 117, 2-(2,6-dichlorobenzyl)-7-hydroxy-1-phenyl-1,2,3,4-tetrahydro-8H-pyrido[1,2-a]pyrazin-8-one] | +++ (three plus signs (+++) is associated with a pIC50 of above about 7) | 
O=c1cc2n(cc1O)CCN(Cc1cc(F)cc(F)c1)C2 [Example 32, 2-(3,5-difluorobenzyl)-7-hydroxy-1,2,3,4-tetrahydro-8H-pyrido[1,2-a]pyrazin-8-one] | ++ (two plus signs (++) is associated with a pIC50 of from about 6 to 7) | 
Cc1ccc(CN2CCn3cc(O)c(=O)cc3C2)c(C)c1 [Example 9, 2-(2,4-dimethylbenzyl)-7-hydroxy-1,2,3,4-tetrahydro-8H-pyrido[1,2-a]pyrazin-8-one] | +++ (three plus signs (+++) is associated with a pIC50 of above about 7) | 
CC(c1cc(F)ccc1F)N1CCn2cc(O)c(=O)cc2C1 (stereo not drawn) [Example 97, 2-[1-(2,5-difluorophenyl)ethyl]-7-hydroxy-1,2,3,4-tetrahydro-8H-pyrido[1,2-a]pyrazin-8-one] | +++ (three plus signs (+++) is associated with a pIC50 of above about 7) | 
CC(c1ccc(Cl)cc1)N1CCn2cc(O)c(=O)cc2C1 (stereo not drawn) [Example 68, 2-[1-(4-chlorophenyl)ethyl]-7-hydroxy-1,2,3,4-tetrahydro-8H-pyrido[1,2-a]pyrazin-8-one] | ++ (two plus signs (++) is associated with a pIC50 of from about 6 to 7) | 
O=c1cc2n(cc1O)CCN(CC(c1ccccc1)c1ccccc1)C2 [Example 19, 2-(2,2-diphenylethyl)-7-hydroxy-1,2,3,4-tetrahydro-8H-pyrido[1,2-a]pyrazin-8-one] | ++ (two plus signs (++) is associated with a pIC50 of from about 6 to 7) | 
O=c1cc2n(cc1O)CCN(C(c1ccccc1)C(F)F)C2 (stereo not drawn) [Example 107, 2-(2,2-difluoro-1-phenyl-ethyl)-7-hydroxy-3,4-dihydro-1H-pyrido[1,2-a]pyrazin-8-one] | +++ (three plus signs (+++) is associated with a pIC50 of above about 7) | 
O=c1cc2n(cc1O)CCN(Cc1ccc(C(F)(F)F)cc1)C2 [Example 2, 7-hydroxy-2-[4-(trifluoromethyl)benzyl]-1,2,3,4-tetrahydro-8H-pyrido[1,2-a]pyrazin-8-one] | ++ (two plus signs (++) is associated with a pIC50 of from about 6 to 7) | 
O=c1cc2n(cc1O)CCN(Cc1cccc3cccnc13)C2 [Example 14, 7-hydroxy-2-(quinolin-8-ylmethyl)-1,2,3,4-tetrahydro-8H-pyrido[1,2-a]pyrazin-8-one] | +++ (three plus signs (+++) is associated with a pIC50 of above about 7) | 
Cc1cccc(C)c1CN1CCn2cc(O)c(=O)cc2C1c1ccc(F)cc1 (stereo not drawn) [Example 124, 2-(2,6-dimethylbenzyl)-1-(4-fluorophenyl)-7-hydroxy-1,2,3,4-tetrahydro-8H-pyrido[1,2-a]pyrazin-8-one] | +++ (three plus signs (+++) is associated with a pIC50 of above about 7) | 
CC(Cc1ccc2c(c1)OCO2)CN1CCn2cc(O)c(=O)cc2C1 (stereo not drawn) [Example 49, 2-[3-(1,3-benzodioxol-5-yl)-2-methylpropyl]-7-hydroxy-1,2,3,4-tetrahydro-8H-pyrido[1,2-a]pyrazin-8-one] | ++ (two plus signs (++) is associated with a pIC50 of from about 6 to 7) | 
O=c1cc2n(cc1O)CCN(Cc1ccccc1Cl)C2 [Example 58, 2-[(2-chlorophenyl)methyl]-7-hydroxy-3,4-dihydro-1H-pyrido[1,2-a]pyrazin-8-one] | +++ (three plus signs (+++) is associated with a pIC50 of above about 7) | 
O=c1cc2n(cc1O)CCN(Cc1c(F)cccc1F)C2 [Example 62, 2-[(2,6-difluorophenyl)methyl]-7-hydroxy-3,4-dihydro-1H-pyrido[1,2-a]pyrazin-8-one] | +++ (three plus signs (+++) is associated with a pIC50 of above about 7) | 
O=c1cc2n(cc1O)CC(Cc1ccccc1)N(Cc1ccccc1)C2 (stereo not drawn) [Example 128, 2,3-dibenzyl-7-hydroxy-1,2,3,4-tetrahydro-8H-pyrido[1,2-a]pyrazin-8-one] | ++ (two plus signs (++) is associated with a pIC50 of from about 6 to 7) | 
O=c1c(O)cn2c(c1Cl)CN(Cc1ccccc1Cl)CC2 [Example 137, 9-chloro-2-[(2-chlorophenyl)methyl]-7-hydroxy-3,4-dihydro-1H-pyrido[1,2-a]pyrazin-8-one] | +++ (three plus signs (+++) is associated with a pIC50 of above about 7) | 
CC(c1cc(Cl)ccc1Cl)N1CCn2cc(O)c(=O)cc2C1 (stereo not drawn) [Example 69, 2-[1-(2,5-dichlorophenyl)ethyl]-7-hydroxy-1,2,3,4-tetrahydro-8H-pyrido[1,2-a]pyrazin-8-one] | +++ (three plus signs (+++) is associated with a pIC50 of above about 7) | 
O=c1cc2n(cc1O)CCN(CC1CCCCC1)C2 [Example 22, 2-(cyclohexylmethyl)-7-hydroxy-1,2,3,4-tetrahydro-8H-pyrido[1,2-a]pyrazin-8-one] | ++ (two plus signs (++) is associated with a pIC50 of from about 6 to 7) | 
O=c1cc2n(cc1O)CCN(Cc1ccccc1OCc1ccccc1)C2 [Example 55, 2-[2-(benzyloxy)benzyl]-7-hydroxy-1,2,3,4-tetrahydro-8H-pyrido[1,2-a]pyrazin-8-one] | ++ (two plus signs (++) is associated with a pIC50 of from about 6 to 7) | 
O=c1cc2n(cc1O)CCN(Cc1ccc(OC(F)(F)F)cc1)C2 [Example 8, 7-hydroxy-2-[4-(trifluoromethoxy)benzyl]-1,2,3,4-tetrahydro-8H-pyrido[1,2-a]pyrazin-8-one] | +++ (three plus signs (+++) is associated with a pIC50 of above about 7) | 
CC1(C)CCCC2=C1CC(CN1CCn3cc(O)c(=O)cc3C1)CC2 (stereo not drawn) [Example 24, 2-[(8,8-dimethyl-1,2,3,4,5,6,7,8-octahydronaphthalen-2-yl)methyl]-7-hydroxy-1,2,3,4-tetrahydro-8H-pyrido[1,2-a]pyrazin-8-one] | +++ (three plus signs (+++) is associated with a pIC50 of above about 7) | 
O=c1cc2n(cc1O)CCN(C(CO)c1ccccc1)C2 (stereo not drawn) [Example 100, 7-hydroxy-2-(2-hydroxy-1-phenylethyl)-1,2,3,4-tetrahydro-8H-pyrido[1,2-a]pyrazin-8-one] | + (a single plus (+) is associated with a pIC50 of from about 4.5 to 6) | 
O=c1c(O)cn2c(c1C1CC1)CN(Cc1ccccc1Cl)CC2 [Example 142, 2-[(2-chlorophenyl)methyl]-9-cyclopropyl-7-hydroxy-3,4-dihydro-1H-pyrido[1,2-a]pyrazin-8-one] | +++ (three plus signs (+++) is associated with a pIC50 of above about 7) | 
Cc1cccc(C(C)N2CCn3cc(O)c(=O)cc3C2)c1 (stereo not drawn) [Example 71, 7-hydroxy-2-[1-(3-methylphenyl)ethyl]-1,2,3,4-tetrahydro-8H-pyrido[1,2-a]pyrazin-8-one] | ++ (two plus signs (++) is associated with a pIC50 of from about 6 to 7) | 
O=c1cc2n(cc1O)CCN(C1CC1c1ccccc1)C2 (stereo not drawn) [Example 109, 7-hydroxy-2-(2-phenylcyclopropyl)-3,4-dihydro-1H-pyrido[1,2-a]pyrazin-8-one] | ++ (two plus signs (++) is associated with a pIC50 of from about 6 to 7) | 
O=c1cc2n(cc1O)CCN(Cc1ccccn1)C2 [Example 11, 7-hydroxy-2-(pyridin-2-ylmethyl)-1,2,3,4-tetrahydro-8H-pyrido[1,2-a]pyrazin-8-one] | ++ (two plus signs (++) is associated with a pIC50 of from about 6 to 7) | 
C[C@@](Cc1ccc(O)c(O)c1)(NN)C(=O)O [Carbidopa] |  | reduction of the efficacious L-DOPA dose [4]: 60-80%
O=c1cc2n(cc1O)CCN(Cc1ccc(F)cc1Cl)C2 [Example 61] | +++ (three plus signs (+++) is associated with a pIC50 of above about 7) | 
COc1ccc2c(c1)C(N1CCn3cc(O)c(=O)cc3C1)CCC2 (stereo not drawn) [Example 91, 7-hydroxy-2-(7-methoxy-1,2,3,4-tetrahydronaphthalen-1-yl)-1,2,3,4-tetrahydro-8H-pyrido[1,2-a]pyrazin-8-one] | +++ (three plus signs (+++) is associated with a pIC50 of above about 7) | 

From patent publication US10934283B2, “COMT inhibiting methods and compositions” (LIEBER INSTITUTE FOR BRAIN DEVELOPMENT, priority 2015, dated 2021)
